Results reported in PubChem BioAssay AID328 (DTP/NCI, 2004).
Where “and” joins values, the source holds several entries; their conditions need not be identical. Identical values can stand only once. Inconclusive results and toxic doses are left out.

System: BDF1 mice, P388 leukemia ip, median survival T/C
Experiment: NCI In Vivo Anticancer Drug Screen. Data for tumor model P388 Leukemia (intraperitoneal) in B6D2F1 (BDF1) mice
Conditions: endpoint: median survival time, higher = longer survival
Summary of the method: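 Vehicle-dosed animals serve as the reference; survival of compound-dosed, tumour-implanted mice is divided by it.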

[1] = dose: 1.56 mg/kg/injection, schedule: Q01DX009 (ip), vehicle: saline
[2] = dose: 3.12 mg/kg/injection, schedule: Q01DX009 (ip), vehicle: saline
[3] = dose: 6.25 mg/kg/injection, schedule: Q01DX009 (ip), vehicle: saline
[4] = dose: 12.5 mg/kg/injection, schedule: Q01DX009 (ip), vehicle: saline
[5] = dose: 25.0 mg/kg/injection, schedule: Q01DX009 (ip), vehicle: saline
[6] = dose: 100.0 mg/kg/injection, schedule: Q01DX009 (ip), vehicle: saline with Tween-80
[7] = dose: 200.0 mg/kg/injection, schedule: Q01DX009 (ip), vehicle: saline with Tween-80
[8] = dose: 100.0 mg/kg/injection, schedule: Q01DX001 (ip), vehicle: saline
[9] = dose: 200.0 mg/kg/injection, schedule: Q01DX001 (ip), vehicle: saline
[10] = dose: 400.0 mg/kg/injection, schedule: Q01DX001 (ip), vehicle: saline
[11] = dose: 50.0 mg/kg/injection, schedule: Q04DX003 (ip), vehicle: saline
[12] = dose: 25.0 mg/kg/injection, schedule: Q04DX003 (ip), vehicle: saline
[13] = dose: 100.0 mg/kg/injection, schedule: Q04DX003 (ip), vehicle: saline
[14] = dose: 200.0 mg/kg/injection, schedule: Q04DX003 (ip), vehicle: saline
[15] = dose: 400.0 mg/kg/injection, schedule: Q04DX003 (ip), vehicle: saline
[16] = dose: 6.25 mg/kg/injection, schedule: Q01DX009 (ip), vehicle: Klucel (hydroxypropylcellulose) (HPC)
[17] = dose: 12.5 mg/kg/injection, schedule: Q01DX009 (ip), vehicle: Klucel (hydroxypropylcellulose) (HPC)
[18] = dose: 25.0 mg/kg/injection, schedule: Q01DX009 (ip), vehicle: Klucel (hydroxypropylcellulose) (HPC)

## CC(=O)OCc1c(O)c2c(c(O)c1COC(C)=O)C(=O)C=CC2=O
[1]
  T/C: 107 % of control
[2]
  T/C: 96 % of control
[3]
  T/C: 105 % of control
[4]
  T/C: 87 % of control
[5]
  T/C: 94 % of control

## COc1ccc2c(c1)CCC1C2CCC2(C)/C(=N/O)C3OC3C12 (stereo not drawn)
dose: 50.0 mg/kg/injection, schedule: Q01DX009 (ip), vehicle: saline with Tween-80
  T/C: 121 % of control
[6]
  T/C: 111 % of control
[7]
  T/C: 111 % of control

## O=S(=O)(O)c1ccncc1
[8]
  T/C: 116 % of control
[9]
  T/C: 104 % of control
[10]
  T/C: 87 % of control

## CCOC1CCC(C(C)=O)C(C#N)(C#N)C1(C#N)C#N (stereo not drawn)
dose: 6.25 mg/kg/injection, schedule: Q01DX001 (ip), vehicle: saline with Tween-80
  T/C: 108 % of control
dose: 12.5 mg/kg/injection, schedule: Q01DX001 (ip), vehicle: saline with Tween-80
  T/C: 123 % of control
dose: 25.0 mg/kg/injection, schedule: Q01DX001 (ip), vehicle: saline with Tween-80
  T/C: 110 % of control and 119 % of control
dose: 50.0 mg/kg/injection, schedule: Q01DX001 (ip), vehicle: saline with Tween-80
  T/C: 124 % of control

## CN1CCN(c2nc3ccccc3n3nnnc23)CC1
dose: 18.75 mg/kg/injection, schedule: Q01DX009 (ip), vehicle: saline with Tween-80
  T/C: 103 % of control
dose: 37.5 mg/kg/injection, schedule: Q01DX009 (ip), vehicle: saline with Tween-80
  T/C: 100 % of control

## Nc1ncnc2c(C3OC(CO)C(O)C3O)[nH]nc12 (stereo not drawn)
dose: 1.5 mg/kg/injection, schedule: Q01DX009 (ip), vehicle: saline
  T/C: 100 % of control
dose: 2.3 mg/kg/injection, schedule: Q01DX009 (ip), vehicle: saline
  T/C: 109 % of control
dose: 8.0 mg/kg/injection, schedule: Q01DX009 (ip), vehicle: saline
  T/C: 113 % of control
[4]
  T/C: 159 % of control
dose: 33.0 mg/kg/injection, schedule: Q04DX003 (ip), vehicle: saline
  T/C: 104 % of control
[11]
  T/C: 114 % of control
dose: 75.0 mg/kg/injection, schedule: Q04DX003 (ip), vehicle: saline
  T/C: 95 % of control
dose: 100.0 mg/kg/injection, schedule: Q04DX003 (ip), vehicle: saline sonified
  T/C: 118 % of control

## C[S+](C)C
dose: 12.0 mg/kg/injection, schedule: Q01DX001 (ip), vehicle: saline
  T/C: 100 % of control
dose: 12.5 mg/kg/injection, schedule: Q04DX003 (ip), vehicle: saline
  T/C: 100 % of control
dose: 25.0 mg/kg/injection, schedule: Q01DX001 (ip), vehicle: saline
  T/C: 100 % of control
[12]
  T/C: 100 % of control
dose: 50.0 mg/kg/injection, schedule: Q01DX001 (ip), vehicle: saline
  T/C: 100 % of control
[11]
  T/C: 100 % of control
[13]
  T/C: 111 % of control
[14]
  T/C: 100 % of control
[15]
  T/C: 96 % of control

## CCOC(=O)C(=O)N(Cc1cnc2nc(N)[nH]c(=O)c2n1)c1ccc(C(=O)NC(CCC(=O)O)C(=O)O)cc1 (stereo not drawn)
[11]
  T/C: 96 % of control
[13]
  T/C: 103 % of control
[14]
  T/C: 116 % of control

## O=C1C(Br)=CC(=NCl)C=C1Br
dose: 3.13 mg/kg/injection, schedule: Q01DX009 (ip), vehicle: Klucel (hydroxypropylcellulose) (HPC)
  T/C: 118 % of control
[16]
  T/C: 112 % of control
[17]
  T/C: 120 % of control
[18]
  T/C: 103 % of control

## CC1C(=O)CCC2(C)CCC(C)(C)CC12 (stereo not drawn)
dose: 100.0 mg/kg/injection, schedule: Q04DX003 (ip), vehicle: saline with Tween-80
  T/C: 109 % of control
dose: 200.0 mg/kg/injection, schedule: Q04DX003 (ip), vehicle: saline with Tween-80
  T/C: 109 % of control
dose: 400.0 mg/kg/injection, schedule: Q04DX003 (ip), vehicle: saline with Tween-80
  T/C: 95 % of control

## N#Cc1ccc(NC(=O)N(CCCl)N=O)cc1
dose: 0.29 mg/kg/injection, schedule: Q01DX009 (ip), vehicle: saline
  T/C: 122 % of control
dose: 0.37 mg/kg/injection, schedule: Q01DX009 (ip), vehicle: Klucel (hydroxypropylcellulose) (HPC)
  T/C: 116 % of control
dose: 0.44 mg/kg/injection, schedule: Q01DX009 (ip), vehicle: saline
  T/C: 122 % of control
dose: 0.5 mg/kg/injection, schedule: Q04DX003 (ip), vehicle: Klucel (hydroxypropylcellulose) (HPC)
  T/C: 103 % of control
dose: 0.8 mg/kg/injection, schedule: Q04DX003 (ip), vehicle: Klucel (hydroxypropylcellulose) (HPC)
  T/C: 107 % of control
dose: 1.0 mg/kg/injection, schedule: Q01DX009 (ip), vehicle: saline
  T/C: 162 % of control
[1]
  T/C: 153 % of control and 202 % of control
dose: 2.0 mg/kg/injection, schedule: Q04DX003 (ip), vehicle: Klucel (hydroxypropylcellulose) (HPC)
  T/C: 183 % of control
dose: 3.0 mg/kg/injection, schedule: Q01DX009 (ip), vehicle: Klucel (hydroxypropylcellulose) (HPC)
  T/C: 187 % of control
dose: 3.0 mg/kg/injection, schedule: Q04DX003 (ip), vehicle: Klucel (hydroxypropylcellulose) (HPC)
  T/C: 170 % of control
dose: 3.12 mg/kg/injection, schedule: Q01DX009 (ip), vehicle: Klucel (hydroxypropylcellulose) (HPC)
  T/C: 175 % of control
[2]
  T/C: 194 % of control
dose: 5.0 mg/kg/injection, schedule: Q04DX003 (ip), vehicle: Klucel (hydroxypropylcellulose) (HPC)
  T/C: 191 % of control and 200 % of control and 215 % of control
[16]
  T/C: 204 % of control
[3]
  T/C: 219 % of control
dose: 8.0 mg/kg/injection, schedule: Q04DX003 (ip), vehicle: Klucel (hydroxypropylcellulose) (HPC)
  T/C: 185 % of control and 210 % of control
dose: 12.0 mg/kg/injection, schedule: Q04DX003 (ip), vehicle: Klucel (hydroxypropylcellulose) (HPC)
  T/C: 245 % of control and 220 % of control
[17]
  T/C: 100 % of control
[4]
  T/C: 102 % of control
dose: 12.5 mg/kg/injection, schedule: Q04DX003 (ip), vehicle: Klucel (hydroxypropylcellulose) (HPC)
  T/C: 222 % of control
dose: 18.0 mg/kg/injection, schedule: Q04DX003 (ip), vehicle: Klucel (hydroxypropylcellulose) (HPC)
  T/C: 265 % of control and 110 % of control
dose: 25.0 mg/kg/injection, schedule: Q04DX003 (ip), vehicle: Klucel (hydroxypropylcellulose) (HPC)
  T/C: 109 % of control

## O=C(O)c1cc(C(=O)O)cc(S(=O)(=O)F)c1
dose: 75.0 mg/kg/injection, schedule: Q04DX003 (ip), vehicle: saline with Tween-80
  T/C: 104 % of control
[6]
  T/C: 105 % of control
dose: 150.0 mg/kg/injection, schedule: Q04DX003 (ip), vehicle: saline with Tween-80
  T/C: 108 % of control
[7]
  T/C: 95 % of control
dose: 300.0 mg/kg/injection, schedule: Q04DX003 (ip), vehicle: saline with Tween-80
  T/C: 104 % of control

## CCOC(=O)CN1C(=O)S/C(=C/c2ccc([N+](=O)[O-])o2)C1=O
dose: 100.0 mg/kg/injection, schedule: Q04DX002 (ip), vehicle: saline with Tween-80
  T/C: 94 % of control
dose: 200.0 mg/kg/injection, schedule: Q04DX002 (ip), vehicle: saline with Tween-80
  T/C: 105 % of control

## N#CC(C#N)=Cc1ccc(C=C(C#N)C#N)cc1
[17]
  T/C: 100 % of control
[18]
  T/C: 95 % of control
dose: 50.0 mg/kg/injection, schedule: Q01DX009 (ip), vehicle: Klucel (hydroxypropylcellulose) (HPC)
  T/C: 90 % of control
dose: 100.0 mg/kg/injection, schedule: Q04DX003 (ip), vehicle: Klucel (hydroxypropylcellulose) (HPC)
  T/C: 100 % of control
dose: 200.0 mg/kg/injection, schedule: Q04DX003 (ip), vehicle: Klucel (hydroxypropylcellulose) (HPC)
  T/C: 104 % of control
dose: 400.0 mg/kg/injection, schedule: Q04DX003 (ip), vehicle: Klucel (hydroxypropylcellulose) (HPC)
  T/C: 121 % of control

## CCCCNC=O
[5]
  T/C: 91 % of control
dose: 50.0 mg/kg/injection, schedule: Q01DX009 (ip), vehicle: saline
  T/C: 100 % of control
[8]
  T/C: 100 % of control
dose: 100.0 mg/kg/injection, schedule: Q01DX009 (ip), vehicle: saline
  T/C: 100 % of control and 104 % of control
[13]
  T/C: 95 % of control
[9]
  T/C: 100 % of control
dose: 200.0 mg/kg/injection, schedule: Q01DX009 (ip), vehicle: saline
  T/C: 104 % of control
[14]
  T/C: 95 % of control
[10]
  T/C: 100 % of control
dose: 400.0 mg/kg/injection, schedule: Q01DX009 (ip), vehicle: saline
  T/C: 104 % of control
[15]
  T/C: 104 % of control

## Cc1cc(=O)cc(C(=O)O)o1
[12]
  T/C: 113 % of control
[11]
  T/C: 100 % of control
[13]
  T/C: 90 % of control
